# Measured values taken from patent US11028058B2, “Heterocyclic compounds as adenosine antagonists” (NUVATION BIO INC., priority 2017, dated 2021).
# What was measured:
# [1] = target: HEK-293 cells expressing human recombinant adenosine A2A receptor (Homo sapiens (Human), UniProt P29274); experiment: cAMP assay, Assay 2 (Eu-cAMP tracer / ULight-anti-cAMP); type: cell-based; conditions: Assay 2
# Description: The functional activity of compounds was tested using one of the two assays to detect the present of cAMP. Activation of G-protein coupled receptors (such as A2A) results in activation of adenylcyclase which converts ATP into cAMP which is used as a downstream signaling molecule. Therefore, molecules which act as GPCR (or specifically A2A receptor) antagonists cause a decrease in intracellular cAMP concentration.
# Both assays used HEK-293 cells expressing human recombinant adenosine A2A receptor were grown prior to the test in media without antibiotic.
# Assay 2 (Table B2-2): 100 nL of test articles at 100× of final concentration were transferred to assay plate by Echo. Cells were washed twice with 5 mL of PBS […]. After aspirating the PBS and adding 1.5 mL versine, cells were incubated at 37° C. for 2-5 min. After centrifugation, 4 mL of medium was added and adjusted cell density to 5,000 cells/well with Stimulation Buffer. 10 μL of cells were aliquoted to the assay plate, centrifuged at 1000 rpm for 1 minute, and incubated for 60 minutes at room temperature. 5 μL 4×Eu-cAMP tracer solution and 5 μL 4×Ulight™-anti-cAMP solution were added to assay plate, followed by centrifugation and 60-minute incubation at room temperature. Plates were read on EnVision.
# [2] = target: human adenosine A2A membrane preparation (Homo sapiens (Human), UniProt P29274); experiment: Adenosine A2A receptor radioligand binding assay (SPA beads, 3H-SCH 58261, 384 plate); conditions: for IC50: Table B1-2; for inhibition at 0.01 µM: read-out: A2a binding % inh @ 10 nM; for inhibition at 0.1 µM: read-out: A2a binding % inh @ 100 nM; for inhibition at 1 µM: read-out: A2a binding % inh @ 1000 nM; for inhibition at 0.001 µM: read-out: A2a binding % inh @ 1 nM
# Description: For the A2A adenosine receptor radioligand binding assay, the following modifications were made to the general protocol. GF/C filters (Perkin Elmer, 6005174), presoaked in 0.01% Brij for 2 h at room temperature were used. Filters were washed six times with 0.5 mL of ice-cold washing buffer (50 mM Tris pH 7.4) and 50 μL of Microscint 20 (Packard) was added in each well. The plates were then incubated for 15 min on an orbital shaker and then counted with a TopCount™ for 1 min/well. Another radioligand binding assay was used to evaluate the binding affinity for the adenosine A2A receptor assay was performed in duplicate in the wells of a 384 plate. Assay buffer contained DPBS 500 mM, MgCl2 0.1 mM, and 1% DMSO. Membrane-bead suspension was prepared by mixing 25.98 μL of human adenosine A2A membrane preparation (Perkin Elmer, RBHA2AM400UA) at 33.4 μg/mL, 28 μL of ADA at 20 μg/mL, and 932 μL of SPA beads at 3.33 mg/mL) and incubated the mixture for 20 min at room temperature. Mixed 20 μL of radiotracer (^3H-SCH 58261) at 15 nM to each well containing test articles at various concentrations and centrifuge the plate at 1000 rpm for 1 minute. Added 30 μL of the membraine-bead suspension to each well. Sealed the plates and incubated for 1 hr at room temperature with vigorous mixing on a plate mixer. Plates were read on Microbeta^2 (Perkin Elmer, 2450-0010).
# HEK-293 cells expressing human recombinant adenosine A2A receptor, sequence (P29274 whole entry): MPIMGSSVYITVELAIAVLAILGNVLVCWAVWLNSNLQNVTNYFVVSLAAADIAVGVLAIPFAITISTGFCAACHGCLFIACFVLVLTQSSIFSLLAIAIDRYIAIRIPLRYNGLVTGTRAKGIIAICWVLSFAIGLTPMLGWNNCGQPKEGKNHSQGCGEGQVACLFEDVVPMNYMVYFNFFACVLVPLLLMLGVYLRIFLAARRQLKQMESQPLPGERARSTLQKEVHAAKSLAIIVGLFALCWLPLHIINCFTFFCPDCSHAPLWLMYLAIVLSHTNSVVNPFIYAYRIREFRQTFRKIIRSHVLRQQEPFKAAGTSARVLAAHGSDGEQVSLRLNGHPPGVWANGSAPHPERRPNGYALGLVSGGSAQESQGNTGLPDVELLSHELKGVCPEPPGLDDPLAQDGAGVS
# human adenosine A2A membrane preparation, sequence (P29274 whole entry): as above
smiles,measurement,setting,value
"Cc1n[nH]c(C)c1-c1nc(N)cnc1-c1ccc2ncccc2c1 [Compound 1.294, 6-(3,5-dimethyl-1H-pyrazol-4-yl)-5-(quinolin-6-yl)pyrazin-2-amine]",IC50,[1],> 10000 nM
"Cc1ccn(-c2nc(N)cnc2-c2cc(Cl)c3[nH]ncc3c2)n1 [Compound 1.295, 5-(7-chloro-1H-indazol-5-yl)-6-(3-methyl-1H-pyrazol-1-yl)pyrazin-2-amine]",IC50,[1],33 nM
same,IC50,[2],5.5 nM
"Cc1ccn(-c2nc(N)cnc2-c2cc(C)c3ncccc3c2)n1 [Compound 1.296, 6-(3-methyl-1H-pyrazol-1-yl)-5-(8-methylquinolin-6-yl)pyrazin-2-amine]",IC50,[1],130 nM
"Cn1ccc(-c2nc(N)cnc2-c2cc(Cl)c3ncccc3c2)n1 [Compound 1.297, 5-(8-chloroquinolin-6-yl)-6-(1-methyl-1H-pyrazol-3-yl)pyrazin-2-amine]",IC50,[1],47.9 nM
same,IC50,[2],17 nM
"Nc1cnc(-c2ccc3ncccc3c2)c(N2CCCC2)n1 [Compound 1.298, 6-(pyrrolidin-1-yl)-5-(quinolin-6-yl)pyrazin-2-amine]",IC50,[1],> 10000 nM
"Cn1ccc(-c2nc(N)cnc2-c2ccc3[nH]ncc3c2)n1 [Compound 1.299, 5-(1H-indazol-5-yl)-6-(1-methyl-1H-pyrazol-3-yl)pyrazin-2-amine]",IC50,[1],1250 nM
"Cc1ccn(-c2nc(N)cnc2-c2cc(C)c3[nH]ncc3c2)n1 [Compound 1.300, 5-(7-methyl-1H-indazol-5-yl)-6-(3-methyl-1H-pyrazol-1-yl)pyrazin-2-amine]",IC50,[1],120 nM
"Nc1cnc(-c2ccc3ncccc3c2)c(N2CCCC2=O)n1 [Compound 1.301, 1-(6-amino-3-(quinolin-6-yl)pyrazin-2-yl)pyrrolidin-2-one]",IC50,[1],> 10000 nM
"Cc1cnn(-c2nc(N)cnc2-c2cc(Cl)c3ncccc3c2)c1 [Compound 1.303, 5-(8-chloroquinolin-6-yl)-6-(4-methyl-1H-pyrazol-1-yl)pyrazin-2-amine]",IC50,[1],573 nM
"Cn1ccc(-c2nc(N)cnc2-c2cc(Cl)c3[nH]ncc3c2)n1 [Compound 1.304, 5-(7-chloro-1H-indazol-5-yl)-6-(1-methyl-1H-pyrazol-3-yl)pyrazin-2-amine]",IC50,[1],40 nM
same,IC50,[2],9 nM
"Cn1ccc(-c2nc(N)cnc2-c2cc(Cl)c3ncsc3c2)n1 [Compound 1.305, 5-(4-chlorobenzo[d]thiazol-6-yl)-6-(1-methyl-1H-pyrazol-3-yl)pyrazin-2-amine]",IC50,[1],96 nM
"Nc1cnc(-c2cc(Cl)c3ncccc3c2)c(-n2ccc(C(F)(F)F)n2)n1 [Compound 1.306, 5-(8-chloroquinolin-6-yl)-6-(3-(trifluoromethyl)-1H-pyrazol-1-yl)pyrazin-2-amine]",IC50,[1],120 nM
"Nc1cnc(-c2cc(Cl)c3ncccc3c2)c(-c2ccn(C3CC3)n2)n1 [Compound 1.307, 5-(8-chloroquinolin-6-yl)-6-(1-cyclopropyl-1H-pyrazol-3-yl)pyrazin-2-amine]",IC50,[1],8480 nM
"Cn1ccc(-c2nc(N)c(O)nc2-c2cc(Cl)c3ncccc3c2)n1 [Compound 1.310, 3-amino-6-(8-chloroquinolin-6-yl)-5-(1-methyl-1H-pyrazol-3-yl)pyrazin-2-ol]",IC50,[1],127 nM
"Cn1ccc(-c2nc(N)c(C(N)=O)nc2-c2cc(Cl)c3ncccc3c2)n1 [Compound 1.311, 3-amino-6-(8-chloroquinolin-6-yl)-5-(1-methyl-1H-pyrazol-3-yl)pyrazine-2-carboxamide]",IC50,[1],279 nM
"COc1nc(-c2cc(Cl)c3ncccc3c2)c(-c2ccn(C)n2)nc1N [Compound 1.312, 5-(8-chloroquinolin-6-yl)-3-methoxy-6-(1-methyl-1H-pyrazol-3-yl)pyrazin-2-amine]",IC50,[1],251 nM
"Cc1ccn(-c2nc(N)c(O)nc2-c2cc(Cl)c3ncccc3c2)n1 [Compound 1.313, 3-amino-6-(8-chloroquinolin-6-yl)-5-(3-methyl-1H-pyrazol-1-yl)pyrazin-2-ol]",IC50,[1],1550 nM
"Cn1ccc(-c2nc(N)cnc2-c2cc(F)c3ncccc3c2)n1 [Compound 1.314, 5-(8-fluoroquinolin-6-yl)-6-(1-methyl-1H-pyrazol-3-yl)pyrazin-2-amine]",IC50,[1],1540 nM
"Cc1ccn(-c2nc(N)c(Br)nc2-c2cc(Cl)c3ncccc3c2)n1 [Compound 1.316, 3-bromo-5-(8-chloroquinolin-6-yl)-6-(3-methyl-1H-pyrazol-1-yl)pyrazin-2-amine]",IC50,[1],40.1 nM
"Cc1ccn(-c2nc(N)c(C(N)=O)nc2-c2cc(Cl)c3ncccc3c2)n1 [Compound 1.317, 3-amino-6-(8-chloroquinolin-6-yl)-5-(3-methyl-1H-pyrazol-1-yl)pyrazine-2-carboxamide]",IC50,[1],279 nM
"CCn1ccc(-c2nc(N)cnc2-c2cc(Cl)c3ncccc3c2)n1 [Compound 1.319, 5-(8-chloroquinolin-6-yl)-6-(1-ethyl-1H-pyrazol-3-yl)pyrazin-2-amine]",IC50,[1],1930 nM
"Cn1ccc(-c2nc(N)c(Br)nc2-c2cc(Cl)c3ncccc3c2)n1 [Compound 1.324, 3-bromo-5-(8-chloroquinolin-6-yl)-6-(1-methyl-1H-pyrazol-3-yl)pyrazin-2-amine]",IC50,[1],12.5 nM
"Nc1cnc(-c2ccc3c(=O)[nH]ccc3c2)c(-c2ccccc2)n1 [Compound 1.327, 6-(5-amino-3-phenylpyrazin-2-yl)isoquinolin-1(2H)-one]",IC50,[1],173 nM
"Cn1cccc(-c2nc(N)cnc2-c2cc(Cl)c3ncccc3c2)c1=O [Compound 1.329, 3-(6-amino-3-(8-chloroquinolin-6-yl)pyrazin-2-yl)-1-methylpyridin-2(1H)-one]",IC50,[1],> 10000 nM
"Cn1ccc(-c2nc(N)cnc2-c2ccc3[nH]c(=O)ccc3c2)n1 [Compound 1.353, 6-(5-amino-3-(1-methyl-1H-pyrazol-3-yl)pyrazin-2-yl)quinolin-2(1H)-one]",IC50,[1],> 10000 nM
"Cc1cnc(-c2nc(N)cnc2-c2cc(Cl)c3ncccc3c2)s1 [Compound 1.395, 5-(8-chloroquinolin-6-yl)-6-(5-methylthiazol-2-yl)pyrazin-2-amine]",IC50,[1],563 nM
"Cc1ccc(-c2nc(N)c(C#N)nc2-c2ccc3ncccc3c2)o1 [Compound No. 1.281, 3-amino-5-(5-methylfuran-2-yl)-6-(quinolin-6-yl)pyrazine-2-carbonitrile]",inhibition at 0.01 µM,[2],78%
same,inhibition at 0.1 µM,[2],88%
same,inhibition at 1 µM,[2],80%
"Cc1ccc(-c2nc(N)c(C#N)nc2-c2ccc3ncccc3c2)s1 [Compound No. 1.282, 3-amino-5-(5-methylthiophen-2-yl)-6-(quinolin-6-yl)pyrazine-2-carbonitrile]",inhibition at 0.01 µM,[2],74%
same,inhibition at 0.1 µM,[2],82%
same,inhibition at 1 µM,[2],79%
"N#Cc1nc(-c2ccc3ncncc3c2)c(-c2ccccc2)nc1N [Compound No. 1.283, 3-amino-5-phenyl-6-(quinazolin-6-yl)pyrazine-2-carbonitrile]",inhibition at 0.01 µM,[2],63%
same,inhibition at 0.1 µM,[2],83%
same,inhibition at 1 µM,[2],95%
"CC(=O)Nc1nc(-c2ccccc2)c(-c2ccc3ncccc3c2)nc1C#N [Compound No. 1.284, N-(3-cyano-6-phenyl-5-(quinolin-6-yl)pyrazin-2-yl)acetamide]",inhibition at 0.01 µM,[2],32%
same,inhibition at 0.1 µM,[2],76%
same,inhibition at 1 µM,[2],83%
Nc1cnc(-c2cc(Cl)c3[nH]ncc3c2)c(-c2ccccc2)n1 [Compound No. 1.289],inhibition at 0.001 µM,[2],41%
same,inhibition at 0.01 µM,[2],75%
same,inhibition at 0.1 µM,[2],87%
same,inhibition at 1 µM,[2],95%
"Cc1cc(C)n(-c2nc(N)cnc2-c2ccc3ncccc3c2)n1 [Compound No. 1.291, 6-(3,5-dimethyl-1H-pyrazol-1-yl)-5-(quinolin-6-yl)pyrazin-2-amine]",inhibition at 0.001 µM,[2],0%
same,inhibition at 0.01 µM,[2],0%
same,inhibition at 0.1 µM,[2],0%
"Cc1ccn(-c2nc(N)c(C#N)nc2-c2cc(Cl)c3ncccc3c2)n1 [Compound No. 1.292, 3-amino-6-(8-chloroquinolin-6-yl)-5-(3-methyl-1H-pyrazol-1-yl)pyrazine-2-carbonitrile]",IC50,[2],2.4 nM
same,inhibition at 0.001 µM,[2],50%
same,inhibition at 0.01 µM,[2],93%
same,inhibition at 0.1 µM,[2],95%
"Nc1cnc(-c2ccc3ncccc3c2)c(-c2cc[nH]n2)n1 [Compound No. 1.293, 6-(1H-pyrazol-3-yl)-5-(quinolin-6-yl)pyrazin-2-amine]",inhibition at 0.001 µM,[2],28%
same,inhibition at 0.01 µM,[2],32%
same,inhibition at 0.1 µM,[2],31%
